Experimental data published in PubChem BioAssay AID248 (DTP/NCI, 2004).
Values joined by “and” are separate entries in the source; they are usually repeats but may differ in a detail not shown here. Identical values can stand only once. Toxic doses and inconclusive results are not listed. No stated cut-off is given here; in the data, active means T/C of 150% or more; inactive means T/C below 125%.

Test system: L1210 leukemia ip in BDF1 mice, survival T/C
Assay: NCI In Vivo Anticancer Drug Screen. Data for tumor model L1210 Leukemia (intraperitoneal) in B6D2F1 (BDF1) mice
Conditions: endpoint: mean survival time, higher = longer survival
Summary of the method: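 Ratio derived from survival: compound-dosed mice over vehicle-dosed mice, all bearing a transplantable tumor.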

[1] = dose: 50.0 mg/kg/injection, schedule: Q01DX009 (ip), vehicle: saline with Tween-80
[2] = dose: 50.0 mg/kg/injection, schedule: Q04DX003 (ip), vehicle: saline with Tween-80
[3] = dose: 100.0 mg/kg/injection, schedule: Q01DX001 (ip), vehicle: saline with Tween-80
[4] = dose: 100.0 mg/kg/injection, schedule: Q01DX009 (ip), vehicle: saline with Tween-80
[5] = dose: 200.0 mg/kg/injection, schedule: Q01DX001 (ip), vehicle: saline with Tween-80
[6] = dose: 100.0 mg/kg/injection, schedule: Q01DX009 (ip), vehicle: Klucel (hydroxypropylcellulose) (HPC)
[7] = dose: 100.0 mg/kg/injection, schedule: Q04DX003 (ip), vehicle: Klucel (hydroxypropylcellulose) (HPC)
[8] = dose: 200.0 mg/kg/injection, schedule: Q01DX009 (ip), vehicle: Klucel (hydroxypropylcellulose) (HPC)
[9] = dose: 200.0 mg/kg/injection, schedule: Q04DX003 (ip), vehicle: Klucel (hydroxypropylcellulose) (HPC)
[10] = dose: 400.0 mg/kg/injection, schedule: Q01DX009 (ip), vehicle: Klucel (hydroxypropylcellulose) (HPC)
[11] = dose: 400.0 mg/kg/injection, schedule: Q04DX003 (ip), vehicle: Klucel (hydroxypropylcellulose) (HPC)
[12] = dose: 100.0 mg/kg/injection, schedule: Q04DX002 (ip), vehicle: Klucel (hydroxypropylcellulose) (HPC)
[13] = dose: 200.0 mg/kg/injection, schedule: Q04DX002 (ip), vehicle: Klucel (hydroxypropylcellulose) (HPC)
[14] = dose: 400.0 mg/kg/injection, schedule: Q04DX002 (ip), vehicle: Klucel (hydroxypropylcellulose) (HPC)
[15] = dose: 100.0 mg/kg/injection, schedule: Q01DX001 (ip), vehicle: Klucel (hydroxypropylcellulose) (HPC)
[16] = dose: 200.0 mg/kg/injection, schedule: Q01DX001 (ip), vehicle: Klucel (hydroxypropylcellulose) (HPC)
[17] = dose: 200.0 mg/kg/injection, schedule: Q01DX009 (ip), vehicle: saline with Tween-80
[18] = dose: 25.0 mg/kg/injection, schedule: Q01DX009 (ip), vehicle: saline with Tween-80
[19] = dose: 12.5 mg/kg/injection, schedule: Q01DX009 (ip), vehicle: saline with Tween-80
[20] = dose: 5.0 mg/kg/injection, schedule: Q01DX001 (ip), vehicle: saline
[21] = dose: 10.0 mg/kg/injection, schedule: Q01DX001 (ip), vehicle: saline
[22] = dose: 25.0 mg/kg/injection, schedule: Q04DX003 (ip), vehicle: saline with Tween-80

Measured: T/C

N=C(CCCc1ccccc1)SCc1ccccc1
inactive: [1] 103 % of control | [2] 94 % of control | [3] 102 % of control | [4] 92 % of control | dose: 100.0 mg/kg/injection, schedule: Q04DX003 (ip), vehicle: saline with Tween-80 93 % of control | [5] 102 % of control

CCCC(C)(COC(N)=O)COC(=O)NC(C)C (stereo not given)
inactive: dose: 25.0 mg/kg/injection, schedule: Q01DX009 (ip), vehicle: Klucel (hydroxypropylcellulose) (HPC) 102 % of control | dose: 25.0 mg/kg/injection, schedule: Q04DX003 (ip), vehicle: Klucel (hydroxypropylcellulose) (HPC) 101 % of control | dose: 50.0 mg/kg/injection, schedule: Q01DX009 (ip), vehicle: Klucel (hydroxypropylcellulose) (HPC) 97 % of control | dose: 50.0 mg/kg/injection, schedule: Q04DX003 (ip), vehicle: Klucel (hydroxypropylcellulose) (HPC) 92 % of control | [6] 94 % of control | [7] 101 % of control | [8] 97 % of control | [9] 95 % of control | [10] 88 % of control | [11] 101 % of control

Cc1cnc(NS(=O)(=O)c2ccc(N)cc2)nc1-c1ccccc1O
inactive: [12] 98 % of control | [13] 98 % of control | [14] 91 % of control

COC(=O)C(CSc1ccccc1)NC(=O)c1ccccc1 (stereo not given)
inactive: [7] 101 % of control | [9] 114 % of control | [11] 96 % of control

COC12C3C=CC4C(C=C3)C4C1C2(Br)Br (stereo not given)
inactive: dose: 50.0 mg/kg/injection, schedule: Q01DX001 (ip), vehicle: Klucel (hydroxypropylcellulose) (HPC) 105 % of control | [15] 96 % of control | [16] 105 % of control

CCNC(=O)NC(=O)C(C)(C)Oc1ccc(Cl)cc1
inactive: [1] 103 % of control | [4] 92 % of control | [17] 96 % of control

O/N=C1/CCCCc2ccccc21
inactive: dose: 100.0 mg/kg/injection, schedule: Q01DX001 (ip), vehicle: saline 105 % of control | dose: 200.0 mg/kg/injection, schedule: Q01DX001 (ip), vehicle: saline 110 % of control | dose: 400.0 mg/kg/injection, schedule: Q01DX001 (ip), vehicle: saline 96 % of control

COc1ccccc1-n1c(=O)c(N=Nc2ccc(Br)cc2)c(O)n(-c2ccccc2C)c1=S
inactive: [15] 109 % of control | [16] 98 % of control | dose: 400.0 mg/kg/injection, schedule: Q01DX001 (ip), vehicle: Klucel (hydroxypropylcellulose) (HPC) 98 % of control

CCCCc1c(Cl)nc(Cl)nc1Cl
inactive: [18] 105 % of control | [1] 88 % of control

CC(C)(C)O[Si](C)(C)CCl
inactive: dose: 100.0 mg/kg/injection, schedule: Q01DX001 (ip), vehicle: carboxymethylcellulose (CMC) 92 % of control | dose: 200.0 mg/kg/injection, schedule: Q01DX001 (ip), vehicle: carboxymethylcellulose (CMC) 92 % of control | dose: 400.0 mg/kg/injection, schedule: Q01DX001 (ip), vehicle: carboxymethylcellulose (CMC) 92 % of control

Fc1cc(F)c(CCl)c(F)c1
inactive: dose: 100.0 mg/kg/injection, schedule: Q01DX009 (ip), vehicle: acetone 94 % of control

Cc1cccc(Cl)c1NC1=NCCO1
inactive: dose: 6.25 mg/kg/injection, schedule: Q01DX009 (ip), vehicle: saline with Tween-80 93 % of control | [19] 102 % of control | [18] 100 % of control

COc1cc(/C=C\C(=O)c2cccc([N+](=O)[O-])c2)cc(OC)c1OC
inactive: [12] 96 % of control | [13] 89 % of control | [14] 100 % of control

C[n+]1ccc(C(=O)O)c2ccccc21
inactive: dose: 75.0 mg/kg/injection, schedule: Q01DX001 (ip), vehicle: saline 94 % of control | dose: 75.0 mg/kg/injection, schedule: Q04DX003 (ip), vehicle: acetone 92 % of control | dose: 150.0 mg/kg/injection, schedule: Q01DX001 (ip), vehicle: saline 95 % of control | dose: 150.0 mg/kg/injection, schedule: Q04DX003 (ip), vehicle: acetone 89 % of control | dose: 300.0 mg/kg/injection, schedule: Q01DX001 (ip), vehicle: saline 90 % of control

CCOC(=O)c1ccc(N=CN(C)C)cc1
inactive: [7] 100 % of control | [9] 95 % of control | [11] 107 % of control

O=C1OC(C(O)C(O)C(O)CO)C(O)C1O (stereo not given)
inactive: dose: 100.0 mg/kg/injection, schedule: Q04DX002 (ip), vehicle: saline 96 % of control | dose: 200.0 mg/kg/injection, schedule: Q04DX002 (ip), vehicle: saline 96 % of control | dose: 400.0 mg/kg/injection, schedule: Q04DX002 (ip), vehicle: saline 108 % of control

CC(C)(C)C1CN1C(=S)Nc1ccccc1 (stereo not given)
inactive: [7] 104 % of control | [9] 105 % of control | [11] 102 % of control

CCOC(=O)c1[nH]c(=S)[nH]c1C(=O)OCC
inactive: [20] 102 % of control | [21] 102 % of control | dose: 20.0 mg/kg/injection, schedule: Q01DX001 (ip), vehicle: saline 104 % of control | dose: 40.0 mg/kg/injection, schedule: Q01DX001 (ip), vehicle: saline 94 % of control | dose: 80.0 mg/kg/injection, schedule: Q01DX001 (ip), vehicle: saline 95 % of control

O=C(C1=Cc2ccccc2OC1)N1CCN(c2ccccc2)CC1
inactive: dose: 100.0 mg/kg/injection, schedule: Q04DX003 (ip), vehicle: gum acacia 103 % of control | dose: 200.0 mg/kg/injection, schedule: Q04DX003 (ip), vehicle: gum acacia 95 % of control | dose: 400.0 mg/kg/injection, schedule: Q04DX003 (ip), vehicle: gum acacia 101 % of control

CCOC(=O)c1ccc(NC(=O)Nc2ccc(NC(C)=O)cc2)cc1
inactive: [18] 89 % of control | dose: 25.0 mg/kg/injection, schedule: Q04DX002 (ip), vehicle: saline with Tween-80 86 % of control | [22] 88 % of control | dose: 50.0 mg/kg/injection, schedule: Q01DX001 (ip), vehicle: saline with Tween-80 88 % of control | [1] 89 % of control | dose: 50.0 mg/kg/injection, schedule: Q04DX002 (ip), vehicle: saline with Tween-80 86 % of control and 88 % of control | [2] 86 % of control | [3] 88 % of control | [4] 91 % of control | [5] 93 % of control | [17] 91 % of control | dose: 200.0 mg/kg/injection, schedule: Q04DX002 (ip), vehicle: saline with Tween-80 99 % of control | dose: 200.0 mg/kg/injection, schedule: Q04DX003 (ip), vehicle: saline with Tween-80 90 % of control | dose: 400.0 mg/kg/injection, schedule: Q04DX002 (ip), vehicle: saline with Tween-80 106 % of control

CCCCCCCCCCCCCCCCOc1ccc(C(=O)Nc2ccc(S(=O)(=O)Nc3cccc4ccccc34)cc2)cc1S(=O)(=O)F
inactive: [7] 102 % of control | [9] 100 % of control | [11] 93 % of control

CCCCCCCCCC(Br)C(C)(C)COO (stereo not given)
inactive: dose: 50.0 mg/kg/injection, schedule: Q01DX001 (ip), vehicle: water 97 % of control | dose: 100.0 mg/kg/injection, schedule: Q01DX001 (ip), vehicle: water 101 % of control | dose: 200.0 mg/kg/injection, schedule: Q01DX001 (ip), vehicle: water 102 % of control

COC(=O)c1ccc(C(=O)O)cc1[N+](=O)[O-]
inactive: [6] 102 % of control | [8] 102 % of control | [10] 90 % of control

CC(C)(O)C#N
inactive: [20] 108 % of control | [21] 102 % of control | dose: 15.0 mg/kg/injection, schedule: Q01DX001 (ip), vehicle: saline 104 % of control

c1ccc2c(c1)CCc1ccccc1C2NC1=NCCO1
inactive: [19] 94 % of control | dose: 12.5 mg/kg/injection, schedule: Q04DX003 (ip), vehicle: saline with Tween-80 97 % of control | [18] 89 % of control | [22] 100 % of control | [1] 93 % of control | [2] 93 % of control
